In brackets after ≈: the same amount, converted by molar mass.
Key:
Type in all cases: functional
[1] = tested on: Rhizoctonia solani; assay: Antifungal activity against Rhizoctonia solani after 72 hrs by agar well diffusion method
[2] = tested on: Staphylococcus aureus; assay: Antibacterial activity against Staphylococcus aureus ATCC 6538 after 24 hrs by agar well diffusion method; settings: ATCC 6538, 24 h
[3] = tested on: Bacillus subtilis; assay: Antibacterial activity against Bacillus subtilis after 24 hrs by agar well diffusion method
[4] = tested on: Klebsiella pneumoniae; assay: Antibacterial activity against Klebsiella pneumoniae at 100 ug/ml after 24 hrs by agar well diffusion method; settings: read-out: DIZ
[5] = tested on: Aspergillus niger; assay: Antifungal activity against Aspergillus niger at 300 ug/ml after 72 hrs by agar well diffusion method; settings: read-out: DIZ
[6] = tested on: Rhizoctonia solani; assay: Antifungal activity against Rhizoctonia solani at 200 ug/ml after 72 hrs by agar well diffusion method; settings: read-out: DIZ
[7] = tested on: Aspergillus niger; assay: Antifungal activity against Aspergillus niger at 50 ug/ml after 72 hrs by agar well diffusion method; settings: read-out: DIZ
[8] = tested on: Bacillus subtilis; assay: Antibacterial activity against Bacillus subtilis at 100 ug/ml after 24 hrs by agar well diffusion method; settings: read-out: DIZ
[9] = tested on: Escherichia coli; assay: Antibacterial activity against Escherichia coli ATCC 8739 after 24 hrs by agar well diffusion method; settings: ATCC 8739, 24 h
[10] = tested on: Escherichia coli; assay: Antibacterial activity against Escherichia coli ATCC 8739 at 500 ug/ml after 24 hrs by agar well diffusion method; settings: ATCC 8739, 24 h, read-out: DIZ
[11] = tested on: Aspergillus niger; assay: Antifungal activity against Aspergillus niger after 72 hrs by agar well diffusion method
[12] = tested on: Fusarium oxysporum; assay: Antifungal activity against Fusarium oxysporum after 72 hrs by agar well diffusion method
[13] = tested on: Aspergillus niger; assay: Antifungal activity against Aspergillus niger at 500 ug/ml after 72 hrs by agar well diffusion method; settings: read-out: DIZ
[14] = tested on: Escherichia coli; assay: Antibacterial activity against Escherichia coli ATCC 8739 at 50 ug/ml after 24 hrs by agar well diffusion method; settings: ATCC 8739, 24 h, read-out: DIZ
[15] = tested on: Fusarium oxysporum; assay: Antifungal activity against Fusarium oxysporum at 100 ug/ml after 72 hrs by agar well diffusion method; settings: read-out: DIZ
[16] = tested on: Klebsiella pneumoniae; assay: Antibacterial activity against Klebsiella pneumoniae at 200 ug/ml after 24 hrs by agar well diffusion method; settings: read-out: DIZ
[17] = tested on: Fusarium oxysporum; assay: Antifungal activity against Fusarium oxysporum at 50 ug/ml after 72 hrs by agar well diffusion method; settings: read-out: DIZ
[18] = tested on: Staphylococcus aureus; assay: Antibacterial activity against Staphylococcus aureus ATCC 6538 at 300 ug/ml after 24 hrs by agar well diffusion method; settings: ATCC 6538, 24 h, read-out: DIZ
[19] = tested on: Rhizoctonia solani; assay: Antifungal activity against Rhizoctonia solani at 100 ug/ml after 72 hrs by agar well diffusion method; settings: read-out: DIZ
[20] = tested on: Bacillus subtilis; assay: Antibacterial activity against Bacillus subtilis at 300 ug/ml after 24 hrs by agar well diffusion method; settings: read-out: DIZ
[21] = tested on: Staphylococcus aureus; assay: Antibacterial activity against Staphylococcus aureus ATCC 6538 at 50 ug/ml after 24 hrs by agar well diffusion method; settings: ATCC 6538, 24 h, read-out: DIZ
[22] = tested on: Bacillus subtilis; assay: Antibacterial activity against Bacillus subtilis at 50 ug/ml after 24 hrs by agar well diffusion method; settings: read-out: DIZ
[23] = tested on: Fusarium oxysporum; assay: Antifungal activity against Fusarium oxysporum at 200 ug/ml after 72 hrs by agar well diffusion method; settings: read-out: DIZ
[24] = tested on: Escherichia coli; assay: Antibacterial activity against Escherichia coli ATCC 8739 at 300 ug/ml after 24 hrs by agar well diffusion method; settings: ATCC 8739, 24 h, read-out: DIZ
[25] = tested on: Aspergillus flavus; assay: Antifungal activity against Aspergillus flavus at 500 ug/ml after 72 hrs by agar well diffusion method; settings: read-out: DIZ
[26] = tested on: Fusarium oxysporum; assay: Antifungal activity against Fusarium oxysporum at 500 ug/ml after 72 hrs by agar well diffusion method; settings: read-out: DIZ
[27] = tested on: Staphylococcus aureus; assay: Antibacterial activity against Staphylococcus aureus ATCC 6538 at 100 ug/ml after 24 hrs by agar well diffusion method; settings: ATCC 6538, 24 h, read-out: DIZ
[28] = tested on: Rhizoctonia solani; assay: Antifungal activity against Rhizoctonia solani at 300 ug/ml after 72 hrs by agar well diffusion method; settings: read-out: DIZ
[29] = tested on: Klebsiella pneumoniae; assay: Antibacterial activity against Klebsiella pneumoniae at 300 ug/ml after 24 hrs by agar well diffusion method; settings: read-out: DIZ
[30] = tested on: Staphylococcus aureus; assay: Antibacterial activity against Staphylococcus aureus ATCC 6538 at 200 ug/ml after 24 hrs by agar well diffusion method; settings: ATCC 6538, 24 h, read-out: DIZ
[31] = tested on: Aspergillus flavus; assay: Antifungal activity against Aspergillus flavus at 300 ug/ml after 72 hrs by agar well diffusion method; settings: read-out: DIZ
[32] = tested on: Klebsiella pneumoniae; assay: Antibacterial activity against Klebsiella pneumoniae at 500 ug/ml after 24 hrs by agar well diffusion method; settings: read-out: DIZ
[33] = tested on: Aspergillus flavus; assay: Antifungal activity against Aspergillus flavus at 50 ug/ml after 72 hrs by agar well diffusion method; settings: read-out: DIZ
[34] = tested on: Aspergillus niger; assay: Antifungal activity against Aspergillus niger at 200 ug/ml after 72 hrs by agar well diffusion method; settings: read-out: DIZ
[35] = tested on: Bacillus subtilis; assay: Antibacterial activity against Bacillus subtilis at 200 ug/ml after 24 hrs by agar well diffusion method; settings: read-out: DIZ
[36] = tested on: Klebsiella pneumoniae; assay: Antibacterial activity against Klebsiella pneumoniae at 50 ug/ml after 24 hrs by agar well diffusion method; settings: read-out: DIZ
[37] = tested on: Escherichia coli; assay: Antibacterial activity against Escherichia coli ATCC 8739 at 200 ug/ml after 24 hrs by agar well diffusion method; settings: ATCC 8739, 24 h, read-out: DIZ
[38] = tested on: Rhizoctonia solani; assay: Antifungal activity against Rhizoctonia solani at 500 ug/ml after 72 hrs by agar well diffusion method; settings: read-out: DIZ
[39] = tested on: Klebsiella pneumoniae; assay: Antibacterial activity against Klebsiella pneumoniae after 24 hrs by agar well diffusion method
[40] = tested on: Aspergillus flavus; assay: Antifungal activity against Aspergillus flavus at 200 ug/ml after 72 hrs by agar well diffusion method; settings: read-out: DIZ
[41] = tested on: Rhizoctonia solani; assay: Antifungal activity against Rhizoctonia solani at 50 ug/ml after 72 hrs by agar well diffusion method; settings: read-out: DIZ
[42] = tested on: Aspergillus flavus; assay: Antifungal activity against Aspergillus flavus at 100 ug/ml after 72 hrs by agar well diffusion method; settings: read-out: DIZ
[43] = tested on: Fusarium oxysporum; assay: Antifungal activity against Fusarium oxysporum at 300 ug/ml after 72 hrs by agar well diffusion method; settings: read-out: DIZ
[44] = tested on: Escherichia coli; assay: Antibacterial activity against Escherichia coli ATCC 8739 at 100 ug/ml after 24 hrs by agar well diffusion method; settings: ATCC 8739, 24 h, read-out: DIZ
[45] = tested on: Aspergillus niger; assay: Antifungal activity against Aspergillus niger at 100 ug/ml after 72 hrs by agar well diffusion method; settings: read-out: DIZ
[46] = tested on: Staphylococcus aureus; assay: Antibacterial activity against Staphylococcus aureus ATCC 6538 at 500 ug/ml after 24 hrs by agar well diffusion method; settings: ATCC 6538, 24 h, read-out: DIZ
[47] = tested on: Bacillus subtilis; assay: Antibacterial activity against Bacillus subtilis at 500 ug/ml after 24 hrs by agar well diffusion method; settings: read-out: DIZ
[48] = tested on: Aspergillus flavus; assay: Antifungal activity against Aspergillus flavus after 72 hrs by agar well diffusion method

## CCn1cc(C=C2C(=O)OC(C)(C)OC2=O)c2cc(Br)ccc21
[1]
  MIC: 35 µg/mL (≈ 92.5 µM)
[2]
  MIC: 25 µg/mL (≈ 66.1 µM)
[3]
  MIC: 30 µg/mL (≈ 79.3 µM)
[4]
  zone of inhibition at 100 µg/mL: 13.4 mm
[5]
  zone of inhibition at 300 µg/mL: 18 mm
[6]
  zone of inhibition at 200 µg/mL: 16 mm
[7]
  zone of inhibition at 50 µg/mL: 6 mm
[8]
  zone of inhibition at 100 µg/mL: 9.5 mm
[9]
  MIC: 15 µg/mL (≈ 39.7 µM)
[10]
  zone of inhibition at 500 µg/mL: 25 mm
[11]
  MIC: 40 µg/mL (≈ 106 µM)
[12]
  MIC: 35 µg/mL (≈ 92.5 µM)
[13]
  zone of inhibition at 500 µg/mL: 25 mm
[14]
  zone of inhibition at 50 µg/mL: 6 mm
[15]
  zone of inhibition at 100 µg/mL: 12 mm
[16]
  zone of inhibition at 200 µg/mL: 14 mm
[17]
  zone of inhibition at 50 µg/mL: 7 mm
[18]
  zone of inhibition at 300 µg/mL: 15 mm
[19]
  zone of inhibition at 100 µg/mL: 12 mm
[20]
  zone of inhibition at 300 µg/mL: 15 mm
[21]
  zone of inhibition at 50 µg/mL: 5 mm
[22]
  zone of inhibition at 50 µg/mL: 5 mm
[23]
  zone of inhibition at 200 µg/mL: 16 mm
[24]
  zone of inhibition at 300 µg/mL: 17 mm
[25]
  zone of inhibition at 500 µg/mL: 23 mm
[26]
  zone of inhibition at 500 µg/mL: 29 mm
[27]
  zone of inhibition at 100 µg/mL: 9.5 mm
[28]
  zone of inhibition at 300 µg/mL: 21 mm
[29]
  zone of inhibition at 300 µg/mL: 21 mm
[30]
  zone of inhibition at 200 µg/mL: 11 mm
[31]
  zone of inhibition at 300 µg/mL: 15 mm
[32]
  zone of inhibition at 500 µg/mL: 30 mm
[33]
  zone of inhibition at 50 µg/mL: 4 mm
[34]
  zone of inhibition at 200 µg/mL: 14 mm
[35]
  zone of inhibition at 200 µg/mL: 11 mm
[36]
  zone of inhibition at 50 µg/mL: 8.4 mm
[37]
  zone of inhibition at 200 µg/mL: 13 mm
[38]
  zone of inhibition at 500 µg/mL: 29 mm
[39]
  MIC: 15 µg/mL (≈ 39.7 µM)
[40]
  zone of inhibition at 200 µg/mL: 12 mm
[41]
  zone of inhibition at 50 µg/mL: 7 mm
[42]
  zone of inhibition at 100 µg/mL: 9 mm
[43]
  zone of inhibition at 300 µg/mL: 21 mm
[44]
  zone of inhibition at 100 µg/mL: 10 mm
[45]
  zone of inhibition at 100 µg/mL: 10 mm
[46]
  zone of inhibition at 500 µg/mL: 23 mm
[47]
  zone of inhibition at 500 µg/mL: 23 mm
[48]
  MIC: 40 µg/mL (≈ 106 µM)
